The results in this text go back to patent publication US20240327427A1, “NEW COMPOUNDS FOR THE TREATMENT OF ALZHEIMER'S DISEASE” (Icahn School of Medicine at Mount Sinai, priority 2020, published 2024).

For test [1], the system named is Aβ42. Put plainly: Aβ42 levels in fly brains (western blot). Particulars: Aβ42 flies, fed. It counts as in vivo, Drosophila. As to the method:
Aβ42 flies were treated with 0, 10, or 50 μM of NCH-51 during aging to examine its effects on neurodegeneration. […] Western blotting was performed as described previously. To detect human Aβ42, ten fly heads for each genotype were homogenized in Tris-Glycine SDS sample buffer, and the same amount of the lysate was loaded to 18% Tris-Glycine gels and transferred to nitrocellulose membrane. The membranes were boiled in PBS for 3 min, blocked with 5% nonfat dry milk, blotted with the anti-AD 6E10 antibody (Signet, Covance), incubated with appropriate secondary antibody and developed using ECL Western Blotting Detection Reagents (GE Healthcare Life Sciences). The membranes were also probed with anti-tubulin (Sigma-Aldrich) as the loading control in each experiment. To detect human tau, ten fly heads for each genotype were homogenized in Tris-Glycine SDS sample buffer, and the same amount of the lysate was loaded to each lane of 10% Tris-Glycine gels and transferred to nitrocellulose membrane. The membranes were blocked with 5% nonfat dry milk, blotted with the antibodies described below, incubated with the appropriate secondary antibody and developed using ECL Prime Western Blotting Detection Reagent (GE Healthcare Life Sciences). […] Imaging was performed with ImageQuant LAS 4000 (GE Healthcare Life Sciences), and the signal intensity was quantified using Image J (NIH).
(In general: In western blotting, separated proteins are transferred to a membrane and probed.)

The subject of test [2] is hiPSC-derived NGN2 neurons. Put plainly: Multi-electrode array (MEA) neuronal activity. It counts as cell-based, human. Particulars: 3 μM NCH-51. As to the method:
To evaluate electrical activity of NGN2-neurons by MEA, density-matched isogenic NGN2-neuronal populations, co-cultured with pHAs, were prepared as described above. Specifically, at day 3, pHAs were split as 17,000 cells/well in a Matrigel-coated 48W MEA plate (Axion Biosystems, M768-tMEA-48W) and maintained as above. At day 7, NGN2-neurons were detached, spun down and seeded on the pHA culture. Outer space of each well in the plate was filled up with autoclaved/deionized water to minimize the evaporation of marginal wells (“edge effect”) during long-term culture. Half volume of neuronal medium (supplemented with 2% FBS) was replaced with fresh medium including 200 nM Ara-C from day 9 until the end of MEA recording. Electrical activity of neurons was recorded daily during day 14-24. On the recording day, the plate was loaded into the Axion Maestro MEA reader (Axion Biosystems). Recording was performed via AxiS 2.4 for 10 mins. Quantitative analysis of the recording was exported as a Microsoft excel sheet. Data were analyzed using GraphPad PRISM 6 software.
A stock solution of LQ081-166 (molecular weight: 452.63) at 3 mM is prepared in dimethyl sulfoxide (DMSO). Once prepared, aliquot the stock solution into 100 μL amounts and store at −80° C. Avoid repeated freeze-thaw cycles. The stock is diluted 1000× into neuronal medium to obtain 3 μM for assays. After 24-hour treatment, RNA was extracted from cells for quantitative PCR. In the MEA assay, LQ081-166 was added on neuronal differentiation day 14. Replace with medium containing drug or vehicle every 2-3 days until the final recording day.

For test [3], the system named is 16 genes related to synaptic biology. Put plainly: mRNA levels of key regulator genes of neuronal activity in Aβ42 fly brains. It counts as in vivo, Drosophila. As to the method: Aβ42 flies were treated with 0, 10, or 50 μM of NCH-51 during aging to examine its effects on neurodegeneration. […] More than 25 flies for each genotype were collected and frozen. Heads were mechanically isolated, and total RNA was extracted using TRIzol Reagent (Thermo Fisher Scientific) according to the manufacturer's protocol with an additional centrifugation step (16,000×g for 10 min) to remove cuticle membranes prior to the addition of chloroform. Total RNA was reverse-transcribed using PrimeScript RT-PCR kit (TaKaRa Bio), and qRT-PCR was performed using Thunderbird SYBR qPCR Mix (Toyobo) on a CFX96 real time PCR detection system (Bio-Rad Laboratories). The average threshold cycle value was calculated from at least three replicates per sample. Expression of genes of interest was standardized relative to GAPDH1. Primer sequences are provided below. Flies were fed with the food containing 10 μM or 50 μM NCH51 or vehicle (final concentration 0.02% dimethyl sulfoxide) from the day after eclosion. These food vials were changed every 3-4 days.

In the case of `CC(C)C(=O)SCCCCCCC(=O)Nc1nc(-c2ccccc2)cs1` [NCH-51], the “Aβ42 levels in fly brains” value in test [1] is listed as “did not affect”. The “restoration of neuronal activity (MEA)” value in test [2] (ATP6V1A KD iNs) is reported as “partially restoring neuronal activity”. In test [2] (iNs), the “neuronal activity (MEA spike events)” value is on record as “potent activator of neuronal activity”. In test [3] (dose-dependent), the “mRNA levels of synaptic biology related genes” value was “increased mRNA levels of synaptic biology related genes”. Also, the “number of key regulator genes of neuronal activity with increased mRNA levels” value in test [3] (fed) is listed as 9 out of 16.
